One assay has as its system LPS treated LDLR−/− mice. Description: Responses to LPS treatment (lipopolysaccharide induced systemic inflammation) in LDLR−/− mice treated with saline or berberine. Type of assay: in vivo. The method, then: Healthy mice had activity level, body temperature, blood pressure, and cardiac function (echocardiography) assessed at baseline (time 0) as detailed below. Mice were then injected intra-peritoneally with LPS (20 mg/kg, E. coli strain 01 II: B4, Sigma™, St. Louis, Mo.). This dose was determined from previous experiments where, in the background strain of C57BL/6 mice, LPS 20 mg/kg delivered intra-peritoneally was the lowest dose, which was lethal in all cases within 12 hours^24. Then activity level and temperature were measured every hour for six hours. At six hours blood pressure was measured by invasive arterial cannulation and cardiac function (echocardiography) was assessed again.
Activity Index: Mice were observed during 2 minutes for posture and activity. 0 (normal) denotes that there are no times with a hunched posture, and the mouse had spontaneous rapid movements interspersed with eating and drinking. 1 (mild) is occasional brief (5-20 seconds) hunched posture, which spontaneously reverted to normal with ongoing spontaneous rapid movements interspersed with eating and drinking. 2 (mild-moderate) was longer (>20 seconds) in the hunched posture which spontaneously reverted to normal with ongoing spontaneous rapid movements interspersed with eating and drinking. 3 (moderate-severe) was nearly continual hunched posture with movement only when subjected to strong external stimuli. 4 (severe) was continual hunched posture without movement.
Temperature: Temperature was measured hourly using an infra-red thermometer (IR-101 La Crosse Technology, La Crosse USA)) held 2-3 mm from the abdomen.
Blood Pressure: At baseline (time 0) mean arterial blood pressure was measured using a non-invasive tail cuff (CODA 2™, Kent Scientific, Torrington, USA). Six hours after LPS injection, mice were anesthetized using inhaled isofluorane (1-3%). Following a small laparatomy, the abdominal aorta was punctured using a 27 gauge needle then a number 2 French micromanometer catheter (Mikro-tip SPR-838™, Millar Instruments Inc., Houston, Tex.) was inserted into the aorta. Mean arterial pressure was derived using analysis software (PVAN 2.9™, Millar Instruments Inc.).
Echocardiography: Mice were lightly anaesthetized using inhaled isofluorane (1-3%) and placed on a warming blanket. M-mode echocardiograms (ECHO) were targeted from 2D echos obtained using the Vevo 770 ECHO (Visualsonics™, Toronto, ON, Canada) operating at a 120 Hz frame rate. Left parasternal 2D left ventricular cross-sectional echocardiographic images were obtained. The position and angle of the echo transducer is maintained by directing the beam just off the tip of the anterior leaflet of the mitral valve and by maintaining internal anatomic landmarks constant. All measurements are taken from M-mode traces at end-expiration. Left ventricular internal dimensions were measured at end-diastole (defined as the onset of the QRS complex in lead II of the simultaneously obtained electrocardiogram) and at end-systole (defined as minimum internal ventricular dimension).
This is consistent with the hypothesis that the benefit derived from the inhibition of PCSK9 is the result of increased availability of LDLR and a subsequent reduction in plasma LDL.

In another assay the test system is PCSK9. As to conditions: intravenous infusion, as early as 8 hours after injection, non-human primates; cited from earlier work.
[1] abbreviates: LDLR−/− mice, 6 hrs after LPS, median (95% CI), n = 4.
Where [2] appears, read: LDLR−/− mice, baseline, median (95% CI), n = 4.

`COc1ccc2cc3[n+](cc2c1OC)CCc1cc2c(cc1-3)OCO2` [Berberine, berberine]: in the assay with LPS treated LDLR−/− mice (setting [1]), the “Activity 6 hrs LPS” value is given as 0 (−0.8-0.3), the “EF 6 hrs LPS” value is reported as 26.0 (23.0-29.0) and the “MAP 6 hrs LPS” value was 53 (52-54). In addition, in the assay with LPS treated LDLR−/− mice (setting [2]), the “Activity Baseline” value was 0 (0-0), the “MAP Baseline” value is given as 109 (93-125)^ and the “Temp. Baseline” value is 37.0 (36.2-37.9). In addition, the “Differences between saline and berberine mice in responses to LPS” value in the assay on LPS treated LDLR−/− mice (LPS treated LDLR−/− mice, berberine vs saline) is on record as “minimal differences”.

B1: AMG145: Amgen monoclonal antibody specific for the catalytic domain of PCSK9 (antibody, chains of the INN, looked up, V domains shown)
VH: EVQLVQSGAEVKKPGASVKVSCKASGYTLTSYGISWVRQAPGQGLEWMGWVSFYNGNTNYAQKLQGRGTMTTDPSTSTAYMELRSLRSDDTAVYYCARGYGMDVWGQGTTVTVSS
VL: ESALTQPASVSGSPGQSITISCTGTSSDVGGYNSVSWYQQHPGKAPKLMIYEVSNRPSGVSNRFSGSKSGNTASLTISGLQAEDEADYYCNSYTSTSMVFGGGTKLTVL
As to B1, the “Circulating LDL-C levels” value in the assay on PCSK9 was “significant reduction”.

(Values after patent publication US20150140005A1, “Methods and Uses for Proprotein Convertase Subtilisin Kexin 9 (PCSK9) Inhibitors” (Cyon Therapeutics Inc., priority 2012, published 2015).)
